Experiment [1] deals with USP1 (Recombinant Human His6-USP1/His6-UAF1 Complex Protein) (Homo sapiens (Human), UniProt O94782). Briefly: In vitro activity assay for USP1 (Ub-CHOP2-Reporter deubiquitination assay). Type of experiment: biochemical. The settings on record: 0.5 h incubation at room temperature, read-out: In vitro inhibitory activity of USP1 IC50. The method, then:
The assay kit (Ub-CHOP2-Reporter Deubiquitination Assay Kit) was purchased from Lifesensors, with Cat. No. of PR1101. The assay kit was subpackaged and stored at −80° C.
Each compound to be tested was dissolved with DMSO to 10 mM. The compound and pure DMSO (with a total volume of 50 nL) were loaded to each well of the 384-well plate by using an ECHO instrument to obtain gradient-diluted sample concentrations at different ratios. The enzyme was diluted with a freshly prepared reaction solution (20 mM Tris-HCl (pH 8.0), 2 mM CaCl2, 2 mM β-mercaptoethanol, 0.05% CHAPS, and ddH2O). To each well, 5 μL of diluted enzyme reaction solution was added, then the plate was centrifuged and oscillated to mix the enzyme and the compound, and the mixture was centrifuged again and placed on ice. The kit reporter system and the substrate were diluted with the reaction solution, then 5 μL of diluted liquid was added to each well, and mixed by centrifugation. The mixture was incubated at room temperature for 0.5 h. […] The inhibitory activity (IC50 values) of the compound on enzyme activity was calculated by using a four-parameter Logistic Model. […] A, B, C, and D are four parameters.

pIC50: −log10 of the molar value.

As usually defined, the GI50 is the concentration giving 50% growth inhibition. Read a high GI50 as less potent growth inhibition. Broadly, the pIC50 is the negative decadic logarithm of the IC50, by convention in mol/L.
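Throughout, for GI50: MDA-MB-436 proliferation over 7 days with compound, viability read as ATP luminescence (CellTiter-Glo), inhibition relative to DMSO-only wells, day 0 signal as background, GI50 from four-parameter fit.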

Sequence of USP1 (Recombinant Human His6-USP1/His6-UAF1 Complex Protein) (O94782 whole entry): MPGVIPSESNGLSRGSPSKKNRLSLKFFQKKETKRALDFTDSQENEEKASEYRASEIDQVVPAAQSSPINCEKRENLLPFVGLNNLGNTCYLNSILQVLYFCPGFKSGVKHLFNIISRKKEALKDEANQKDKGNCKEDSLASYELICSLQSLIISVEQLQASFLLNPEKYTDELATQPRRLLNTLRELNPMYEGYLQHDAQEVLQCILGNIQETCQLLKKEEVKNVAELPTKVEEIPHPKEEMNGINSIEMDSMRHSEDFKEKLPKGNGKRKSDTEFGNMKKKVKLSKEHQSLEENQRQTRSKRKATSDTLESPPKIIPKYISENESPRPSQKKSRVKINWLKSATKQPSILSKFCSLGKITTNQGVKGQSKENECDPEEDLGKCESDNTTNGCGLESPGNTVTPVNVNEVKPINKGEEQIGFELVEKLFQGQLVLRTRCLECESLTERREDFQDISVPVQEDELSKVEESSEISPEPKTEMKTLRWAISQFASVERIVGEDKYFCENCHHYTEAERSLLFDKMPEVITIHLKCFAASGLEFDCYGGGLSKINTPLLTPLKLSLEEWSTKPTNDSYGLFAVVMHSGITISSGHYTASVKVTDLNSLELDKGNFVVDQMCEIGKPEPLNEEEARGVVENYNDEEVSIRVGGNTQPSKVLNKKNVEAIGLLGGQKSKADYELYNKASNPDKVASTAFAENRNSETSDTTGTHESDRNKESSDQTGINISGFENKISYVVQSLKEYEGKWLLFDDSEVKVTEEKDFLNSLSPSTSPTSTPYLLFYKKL
Sequence of USP1 (Recombinant Human His6-USP1/His6-UAF1 Complex Protein) (Q8TAF3 whole entry partner): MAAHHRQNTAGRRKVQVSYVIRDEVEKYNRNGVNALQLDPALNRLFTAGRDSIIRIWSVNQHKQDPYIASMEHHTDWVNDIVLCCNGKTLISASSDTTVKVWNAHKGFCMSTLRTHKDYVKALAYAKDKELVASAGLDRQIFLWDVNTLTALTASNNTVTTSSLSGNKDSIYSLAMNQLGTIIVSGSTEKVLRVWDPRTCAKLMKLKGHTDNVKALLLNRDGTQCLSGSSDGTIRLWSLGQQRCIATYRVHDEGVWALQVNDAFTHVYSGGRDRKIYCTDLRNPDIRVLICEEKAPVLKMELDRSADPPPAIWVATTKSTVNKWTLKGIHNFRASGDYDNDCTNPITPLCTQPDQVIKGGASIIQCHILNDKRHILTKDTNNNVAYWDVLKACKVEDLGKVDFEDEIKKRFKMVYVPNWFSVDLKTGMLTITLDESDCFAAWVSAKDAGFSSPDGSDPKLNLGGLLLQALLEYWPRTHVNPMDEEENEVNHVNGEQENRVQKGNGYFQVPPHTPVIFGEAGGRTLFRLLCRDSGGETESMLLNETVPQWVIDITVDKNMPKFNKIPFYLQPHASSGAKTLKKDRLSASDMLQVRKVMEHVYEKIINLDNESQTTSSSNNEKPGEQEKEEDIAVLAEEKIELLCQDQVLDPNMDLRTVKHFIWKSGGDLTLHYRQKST

In the experiment on MDA-MB-436 cells, `COc1ncnc(C2CC2)c1-c1ncc2c(n1)N(Cc1ccc3c(c1)CCCn1cc(C(F)(F)F)nc1-3)CC(=S)N2C` [Compound 82, 2-(4-cyclopropyl-6-methoxypyrimidin-5-yl)-5-methyl-8-((2-(trifluoromethyl)-6,7-dihydro-5H-benzo[c]imidazo[1,2-a]azepin-9-yl)methyl)-7,8-dihydropteridine-6(5H)-thione] returned a concentration for 50% growth inhibition (GI50) of 35.8 nM. Further, the negative logarithm of the IC50 (pIC50) in experiment [1] was 7.23.
For `COc1ncnc(C2CC2)c1-c1ncc2nc(C)c(=O)n(Cc3ccc(-c4nc(C(F)(F)F)cn4C)cc3)c2n1` [Compound 61, 2-(4-cyclopropyl-6-methoxypyrimidin-5-yl)-6-methyl-8-(4-(1-methyl-4-(trifluoromethyl)-1H-imidazol-2-yl)benzyl)pteridin-7(8H)-one], the GI50 with MDA-MB-436 cells was 81.4 nM. In addition, the pIC50 in experiment [1] is 7.44.
On the same counts, the results for `COc1ncnc(C2CC2)c1-c1ncc2c(n1)N(Cc1ccc(-c3nc(C(F)(F)F)cn3C)c(F)c1)CC(=O)N2C` [Compound 65, 2-(4-cyclopropyl-6-methoxypyrimidin-5-yl)-5-methyl-8-(3-fluoro-4-(1-methyl-4-(trifluoromethyl)-1H-imidazol-2-yl)benzyl)-7,8-dihydropteridin-6(5H)-one] are 26.8 nM and 7.55.
On the same counts, the results for `COc1ncnc(C2CC2)c1-c1ncc2c(n1)N(Cc1ccc(-c3nc(C(F)(F)F)cn3C)cc1)C(=O)C(C)O2` (stereo not drawn) [Compound 21, 2-(4-cyclopropyl-6-methoxypyrimidin-5-yl)-6-methyl-8-(4-(1-methyl-4-(trifluoromethyl)-1H-imidazol-2-yl)benzyl)-6H-pyrimido[5,4-b][1,4]oxazin-7(8H)-one] are 97.5 nM and 7.78.
On the same counts, the results for `COc1ncnc(C2CC2)c1-c1ncc2c(n1)N(Cc1ccc(-c3nc(C(F)(F)F)cn3C)c(F)c1)CC(=S)N2C` [Compound 83, 2-(4-cyclopropyl-6-methoxypyrimidin-5-yl)-8-(3-fluoro-4-(1-methyl-4-(trifluoromethyl)-1H-imidazol-2-yl)benzyl)-5-methyl-7,8-dihydropteridine-6(5H)-thione] are 23 nM and 7.31.
`COc1ncnc(C2CC2)c1-c1ncc2c(n1)N(Cc1cc(F)c(-c3nc(C(F)(F)F)cn3C)c(F)c1)CCO2` [Compound 62]: in the experiment with MDA-MB-436 cells, the GI50 is 12.3 nM. Further, the pIC50 in experiment [1] was 8.01.
`COc1ncnc(C2CC2)c1-c1ncc2c(n1)N(Cc1ccc(-c3nc(C(F)(F)F)cn3C)c(F)c1)C(=O)OC2(C)CO` (stereo not drawn) [Compound 58, 7-(4-cyclopropyl-6-methoxypyrimidin-5-yl)-1-(3-fluoro-4-(1-methyl-4-(trifluoromethyl)-1H-imidazol-2-yl)benzyl)-4-(hydroxymethyl)-4-methyl-1,4-dihydro-2H-pyrimido[4,5-d][1,3]oxazin-2-one]: in the experiment on MDA-MB-436 cells, the GI50 is 81.8 nM. For the same molecule, the pIC50 in experiment [1] is 7.43.
In the experiment on MDA-MB-436 cells, `COc1ncnc(C2CC2)c1-c1ncc2c(n1)N(Cc1ccc(-c3nc(C(F)(F)F)cn3C(C)C)c(F)c1)CC(=O)N2C` [Compound 67, 2-(4-cyclopropyl-6-methoxypyrimidin-5-yl)-5-methyl-8-(3-fluoro-4-(1-isopropyl-4-(trifluoromethyl)-1H-imidazol-2-yl)benzyl)-7,8-dihydropteridin-6(5H)-one] had a GI50 of 17.3 nM. Also, in experiment [1], the pIC50 was 7.77.
In turn, `COc1ncnc(C2CC2)c1-c1ncc2c(n1)N(Cc1ccc(-c3nc(C(F)(F)F)cn3C)cc1)C(=O)N(C)C2` [Compound 29, 7-(4-cyclopropyl-6-methoxypyrimidin-5-yl)-3-methyl-1-(4-(1-methyl-4-(trifluoromethyl)-1H-imidazol-2-yl)benzyl)-3,4-dihydropyrimido[4,5-d]pyrimidin-2(1H)-one] showed a GI50 in the experiment on MDA-MB-436 cells of 24.4 nM. The pIC50 in experiment [1] is 7.70.
